Several values for one entry are separate records, joined by “and”; a condition that tells them apart may be missing. Identical values can stand only once.
Conditions: Crystal, Transpiration method

O=[Te]=O [tellurium dioxide]
Conditions | vapor or sublimation pressure
884 K | 0.0001487 kPa
889 K | 0.0001692 kPa
895 K | 0.0001987 kPa
899 K | 0.0002538 kPa
905 K | 0.0003102 kPa
909 K | 0.0003271 kPa
915 K | 0.0004741 kPa
925 K | 0.0006099 kPa and 0.0006023 kPa and 0.0005679 kPa
926 K | 0.0005409 kPa
935 K | 0.0009295 kPa
940 K | 0.001155 kPa
941 K | 0.001072 kPa
946 K | 0.001255 kPa
951 K | 0.001465 kPa
960 K | 0.002168 kPa
971 K | 0.003407 kPa
976 K | 0.003717 kPa
982 K | 0.004543 kPa
987 K | 0.004956 kPa
